{
  "source": "paper PMC10759609",
  "about": "“A novel PDPN antagonist peptide CY12-RP2 inhibits melanoma growth via Wnt/β-catenin and modulates the immune cells” (Journal of Experimental & Clinical Cancer Research : CR, 2024)",
  "key": {"[1]": {"system": "immune cells in lungs and spleens", "test": "Immunofluorescence of immune cell infiltration, spleen and lung, lung metastasis model", "assay_type": "in vivo, BALB/c mice", "procedure": "Immunofluorescence analysis was used for antigen localization and quantification. For PDPN immunofluorescence staining, melanoma cells (A375, A875) were seeded in coverslips, cultured for 24 h, and fixed using 4% paraformaldehyde for 15 min at room temperature (RT). The cells were then permeabilized with 0.2% Triton X-100 in PBS for 10 min. Cells were blocked using 1% bovine serum albumin (BSA) in PBS for 30 min at RT, and incubated with the primary antibody overnight at 4 ℃. Afterwards, cells were washed three times with PBS containing 0.01% Triton X-100 for 5 min, and incubated with Alexa Fluor 568–conjugated secondary antibodies at RT for 1 h. Lastly, the nuclei were dyed with 4’,6-diamidino-2-phenylindole (DAPI) for 5 min at RT, and the slides were imaged using a NIKON laser scanning confocal microscope. To further verify the specificity binding ability of CY12-RP2 with PDPN, immunofluorescence was detected for analysis in melanoma cells. Briefly, A375 or A875 cells were incubated with CY12-RP2 at a concentration of 5 μM for 10 h at 37 ℃, and then washed with DMEM to remove the unbound peptide. The anti-PDPN primary antibody was then incubated for 4 h at RT. Further experimental procedures were performed as described above. To determine the immune cell infiltration and proportion changes in the lungs and spleens in the pulmonary metastasis mouse model, sequential frozen slices (12 μm) were prepared and incubated with CD3, CD4, CD8, Foxp3, CD56, F4/80, and CD11c primary antibodies for 1 h, and then incubated with Alexa Fluor 488-conjugated goat anti-mouse F(ab’)2 and Alexa Fluor 647-conjugated goat anti-mouse F(ab’)2 in PBS containing 1% BSA and 1% goat serum for 30 min. All incubations were conducted under coverslips at RT, and then repeatedly washed 3 times with PBS. Coverslips were mounted after staining cell nuclei with DAPI, and imaged using a NIKON laser scanning confocal microscope."}, "[2]": {"system": "immune cells in spleen and lung", "test": "Flow cytometry of immune cells, spleen and lung, lung metastasis model", "assay_type": "in vivo, BALB/c mice", "details": "lungs and spleens", "procedure": "In this study, cell apoptosis was analyzed by flow cytometry using a PI/FITC-Annexin V Apoptosis Detection Kit (4A Biotech, Beijing, China). Briefly, melanoma cells were collected and washed with pre-chilled PBS, then resuspended with Annexin V staining buffer. Afterward, fluorescein isothiocyanate (FITC)-Annexin V and PI were stained for 5 min at RT, and then immediately detected using a Beckman flow cytometer. To investigate immune cell infiltration of the lung and spleen in the pulmonary metastasis mouse model, the surface and nuclear antigen staining were performed following the experimental procedure. Fluorescence-labeled mAb against CD3, CD25, CD49b, GranzymeB, CD11b, CD86, and CD206 were purchased from BioLegend (BioLegend, San Diego, CA), and CD4, CD8, and Foxp3 from Tonbo. Surface markers, including CD3, CD4, CD8, CD25, CD49b, GranzymeB, CD11b, CD86 and CD206, were firstly stained, then fixed, permeabilized, and stained for the intranuclear marker Foxp3, respectively. Finally, the samples were measured using flow cytometry.\nFor pulmonary metastasis assays, 6- to 8-week-old female BALB/c mice were administered with 5 × 10^5 B16F10-Luc cells via tail vein to establish an experimental pulmonary metastasis model of melanoma. CY12-RP2 was administered to the mice intravenously at high and low doses (25 mg/kg and 100 mg/kg) every two days, and the mice were sacrificed after 15 days of treatment. Pulmonary metastases were evaluated using bioluminescence imaging on the 2nd, 5th, 10th, 15th and 20th day after B16F10-Luc cells injection. Subsequently, the BALB/c mice were sacrificed, and the organs including the heart, liver, spleen, lung, and kidney were collected and imaged for evaluation of micrometastases. The xenografts and organs were kept in a 4% paraformaldehyde solution for subsequent histological assays."}},
  "note": "Peptide text beside a SMILES is read from it.",
  "data": [
    {"smiles": "CC(C)C[C@H](NC(=O)[C@H](Cc1ccc(O)cc1)NC(=O)[C@@H](N)[C@@H](C)O)C(=O)N[C@@H](CS)C(=O)N[C@H](C(=O)N[C@@H](C)C(=O)N[C@@H](CS)C(=O)N[C@@H](CC(=O)O)C(=O)N[C@@H](Cc1ccc(O)cc1)C(=O)N[C@H](C(=O)N[C@@H](Cc1c[nH]cn1)C(=O)N[C@@H](Cc1c[nH]cn1)C(=O)O)[C@@H](C)O)[C@@H](C)O", "note": "[CY12-RP2] (H-TYLCTACDYTHH-OH; N-terminus and C-terminus assumed)", "values": [
      {"measurement": "M2-type macrophages", "setting": "[1]; immunofluorescence", "value": "decreased proportion"},
      {"measurement": "NK cells and M1-type macrophages", "setting": "[1]; immunofluorescence", "value": "increased proportions"},
      {"measurement": "infiltration of CD3 + CD4 + T cells and CD3 + CD8 + T cells", "setting": "[1]; multiplex immunofluorescence", "value": "remarkable increase"},
      {"measurement": "infiltration of Treg cells", "setting": "[1]; multiplex immunofluorescence", "value": "reduction"},
      {"measurement": "CD3 + CD4 + T cells ratio to total T cells", "setting": "[2]", "value": "significantly increased"},
      {"measurement": "CD3 + CD8 + T cells ratio to total T cells", "setting": "[2]", "value": "significantly increased"},
      {"measurement": "CD4 + CD25 + Foxp3 + Treg cells", "setting": "[2]", "value": "significantly diminished"},
      {"measurement": "CD11b + CD86 + M1-like macrophages proportion", "setting": "[2]", "value": "significantly increased"},
      {"measurement": "CD11b + CD206 + M2-like macrophages proportion", "setting": "[2]", "value": "decreased"},
      {"measurement": "CD49b + Granzyme B + NK cells proportion", "setting": "[2]", "value": "significantly increased"}
    ]}
  ]
}
